Where two headings read alike, the source gives them in different places.
Columns and labels:
NCI-H82 cell = assay: Cell viability, Promega CellTiter-Glo, NCI-H82 cell; format: cell-based; conditions: Homo sapiens, NCI-H82; read-out: IC50 of cell viability inhibition
Protocol: (§1) Cell viability was detected by using the Promega CellTiter-Glo kit, the kit reflected cell viability by directly measuring intracellular ATP content. […] Daoy cell and NCI-H82 cell were cultured in DMEM containing 10% FBS (plus p/s).

NCI-H1048 = assay: Cell viability CellTiter-Glo, NCI-H1048; format: cell-based; conditions: Homo sapiens; NCI-H1048, lung cancer
Protocol: (§2) Cell viability was measured by using the Promega CellTiter-Glo kit, the kit reflected cell viability by directly measuring intracellular ATP content. Different cancer cells were cultured in culture medium, and the 50% inhibitory concentration IC50 of the compound SJ2858 was measured by Promega CellTiter-Glo kit. The name source and culture condition of each tumor cell line were as follows:
Cell line NCI-H1048 (ATCC, No. CRL-5853) was cultured in HITES medium containing 5% fetal bovine serum (+P/S);

Gp2D = assay: Cell viability CellTiter-Glo, Gp2D; format: cell-based; conditions: intestinal cancer
Protocol: as §2
Cell line Gp2D (ECACC, No. 95090714) was cultured in DMEM medium containing 10% fetal bovine serum (+P/S);

SNU-449 = assay: Cell viability CellTiter-Glo, SNU-449; format: cell-based; conditions: Homo sapiens; SNU-449, liver cancer
Protocol: as §2
Cell line SNU-449 (ATCC, No. CRL-2234) was cultured in RPMI1640 medium containing 10% fetal bovine serum (+P/S);

U-937 = assay: Cell viability CellTiter-Glo, U-937; format: cell-based; conditions: Homo sapiens; U-937, lymphoma
Protocol: as §2
Cell line U-937 (ATCC, No. CRL-1593.2) was cultured in RPMI1640 medium containing 10% fetal bovine serum (+P/S);

[1] = test system: oxidative phosphorylation pathway of mitochondria; assay: Cellular oxygen consumption (OCR), XFe metabolic analysis system; format: cell-based; conditions: NCI-H82 cell; 73.2 μM; within half an hour; FIG. 1
Protocol: The oxygen required by cell was mainly consumed in the mitochondria respiratory chain, so the measurement of cellular oxygen consumption (OCR, oxygen consumption rate) could directly reflect the activity of the oxidative phosphorylation pathway of mitochondria. In this experiment, the XFe metabolic analysis system was used to measure the oxygen consumption of NCI-H82 cell in the presence or absence of Compound SJ2858 (baicalein) and Compound SJ2775 (baicalin).
Rotenone (abbreviated as RO, 0.5 μM) is a known inhibitor of mitochondria oxidative phosphorylation pathway complex I, Antimycin A (abbreviated as AA, 0.5 μM) is a known inhibitor of mitochondria oxidative phosphorylation pathway complex III. Compound SJ2858, 73.2 μM; Compound SJ2775, 118.2 μM.

786-O = assay: Cell viability CellTiter-Glo, 786-O; format: cell-based; conditions: Homo sapiens, 786-0, kidney cancer
Protocol: as §2
Cell line 786-O (ATCC, No. CRL-1932) was cultured in RPMI1640 medium containing 10% fetal bovine serum (+P/S);

GAK = assay: Cell viability CellTiter-Glo, GAK; format: cell-based; conditions: melanoma
Protocol: as §2
Cell line GAK (JCRB, No. JCRB0180) was cultured in Ham's F12 medium containing 20% fetal bovine serum (+P/S);

H9 = assay: Cell viability CellTiter-Glo, H9; format: cell-based; conditions: Homo sapiens; H9, lymphoma
Protocol: as §2
Cell line H9 (ATCC, No. HTB-176) was cultured in RPMI1640 medium containing 10% fetal bovine serum (+P/S);

LS 180 = assay: Cell viability CellTiter-Glo, LS 180; format: cell-based; conditions: Homo sapiens, LS180; LS 180, intestinal cancer
Protocol: as §2, with “follows: […]” for “follows:”

G-361 = assay: Cell viability CellTiter-Glo, G-361; format: cell-based; conditions: Homo sapiens; G-361, melanoma
Protocol: as §2
Cell line G-361 (ATCC, No. CRL-1424) was cultured in McCoy's 5a medium containing 10% fetal bovine serum (+P/S).

WSU-DLCL2 = assay: Cell viability CellTiter-Glo, WSU-DLCL2; format: cell-based; conditions: Homo sapiens, WSUDLCL2; WSU-DLCL2, lymphoma
Protocol: as §2
Cell line WSU-DLCL2 (DSMZ, No. ACC-575) was cultured in RPMI1640 medium containing 10% fetal bovine serum (+P/S);

HH = assay: Cell viability CellTiter-Glo, HH; format: cell-based; conditions: Homo sapiens, lymphoma
Protocol: as §2
Cell line HH (ATCC, No. CRL-2105) was cultured in RPMI1640 medium containing 10% fetal bovine serum (+P/S);

COLO 320HSR = assay: Cell viability CellTiter-Glo, COLO 320HSR; format: cell-based; conditions: Homo sapiens, intestinal cancer
Protocol: as §2
Cell line COLO 320HSR (ATCC, No. CCL-220.1) was cultured in RPMI1640 medium containing 10% fetal bovine serum (+P/S);

SNU-398 = assay: Cell viability CellTiter-Glo, SNU-398; format: cell-based; conditions: Homo sapiens; SNU-398, liver cancer
Protocol: as §2
Cell line SNU-398 (ATCC, No. CRL-2233) was cultured in RPMI1640 medium (+P/S); containing 10% fetal bovine serum (+P/S);

Daoy cell = assay: Cell viability, Promega CellTiter-Glo, Daoy cell; format: cell-based, human; conditions: Homo sapiens, Daoy, read-out: IC50 of cell viability inhibition
Protocol: as §1

G-401 = assay: Cell viability CellTiter-Glo, G-401; format: cell-based; conditions: Homo sapiens; G-401, kidney cancer
Protocol: as §2
Cell line G-401 (ATCC, No. CRL-1441) was cultured in McCoy's 5a medium containing 10% fetal bovine serum (+P/S);

Jurkat, Clone E6-1 = assay: Cell viability CellTiter-Glo, Jurkat, Clone E6-1; format: cell-based; conditions: Homo sapiens, Clone E6-1, leukemia
Protocol: as §2
Cell line Jurkat, Clone E6-1 (ATCC, No. TIB-152) was cultured in RPMI1640 medium containing 10% fetal bovine serum (+P/S);

OCI-AML-3 = assay: Cell viability CellTiter-Glo, OCI-AML-3; format: cell-based; conditions: Homo sapiens; OCI-AML-3, leukemia
Protocol: as §2
Cell line OCI-AML-3 (DSMZ, No. ACC-582) was cultured in RPMI1640 medium containing 20% fetal bovine serum (+P/S);

Structure (SMILES): O=c1cc(-c2ccccc2)oc2cc(O)c(O)c(O)c12 [Compound SJ2858, baicalein]
- IC50 (NCI-H82 cell): 15.6 µM
- IC50 (NCI-H1048): 15 µM
- IC50 (Gp2D): 14.9 µM
- IC50 (SNU-449): 26.9 µM
- IC50 (U-937): 39.2 µM
- Inhibition of oxygen consumption (in words) [1]: significantly inhibit
- IC50 (786-O): 10.6 µM
- IC50 (GAK): 23.1 µM
- IC50 (H9): 19 µM
- IC50 (LS 180): 17.4 µM
- IC50 (G-361): 33.6 µM
- IC50 (WSU-DLCL2): 21.3 µM
- IC50 (HH): 34 µM
- IC50 (COLO 320HSR): 17.8 µM
- IC50 (SNU-398): 13 µM
- IC50 (Daoy cell; Daoy cell with CSA (1.5 μM mPTP inhibitor)): 13.2 µM
- IC50 (Daoy cell; Daoy cell without CSA (active mPTP)): 35.2 µM
- IC50 (G-401): 12.3 µM
- IC50 (Jurkat, Clone E6-1): 14.2 µM
- IC50 (OCI-AML-3): 62.3 µM
